Where two headings read alike, the source gives them in different places.
Key:
[1] = target: acetylcholine esterase (Homo sapiens, UniProt P06276); experiment: Inhibition of acetylcholine esterase, modified method of Ellmann, human serum; format: biochemical; settings: ACHE inhibition
[2] = human serum from a pool of 10 test subjects, 37° C., pH 7.8, compounds of general formula (I)

Sequence of acetylcholine esterase (P06276 29-602): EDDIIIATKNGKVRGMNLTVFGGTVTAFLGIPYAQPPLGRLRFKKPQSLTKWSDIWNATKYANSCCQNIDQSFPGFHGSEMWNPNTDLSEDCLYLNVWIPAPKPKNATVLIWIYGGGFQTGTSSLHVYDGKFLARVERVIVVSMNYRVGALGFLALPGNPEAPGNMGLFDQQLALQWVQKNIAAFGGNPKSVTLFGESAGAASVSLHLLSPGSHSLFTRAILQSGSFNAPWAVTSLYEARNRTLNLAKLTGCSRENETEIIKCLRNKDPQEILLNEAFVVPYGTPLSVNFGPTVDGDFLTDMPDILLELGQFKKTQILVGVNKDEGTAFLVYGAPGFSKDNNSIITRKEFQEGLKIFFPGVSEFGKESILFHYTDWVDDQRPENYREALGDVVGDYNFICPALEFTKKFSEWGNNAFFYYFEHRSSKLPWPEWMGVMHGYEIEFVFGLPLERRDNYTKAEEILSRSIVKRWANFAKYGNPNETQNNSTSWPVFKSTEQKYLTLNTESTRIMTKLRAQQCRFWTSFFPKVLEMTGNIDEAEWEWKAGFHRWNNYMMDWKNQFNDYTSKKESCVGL

melting point [°C]	Compound	IC50 in μMol [1, 2]	also measured
170 to 173	O=[N+]([O-])c1ccc(N2CC3CC2CN3Cc2ccccc2)cc1 (stereo not shown)		
107 to 108	O=[N+]([O-])c1ccccc1N1CC2CC1CN2Cc1ccccc1 (stereo not shown)		
120 to 130	c1ccc(N2CC3CC2CN3)cc1 (stereo not shown)		
130 to 140	Cc1ccc(N2CC3CC2CN3)cc1 (stereo not shown)		
120 to 130	Clc1ccc(N2CC3CC2CN3)cc1 (stereo not shown)		
120 to 130	Fc1ccc(N2CC3CC2CN3)cc1 (stereo not shown)		
188 to 189	COc1cc(Br)c2c3c1OC1C[C@@H](O)C=CC31CCN(C)C2=O (mixture of isomers)		
	CCCCCCN1CCC23C=CC(O)CC2Oc2c(OC)cc(Br)c(c23)C1 (racemic) [Substance 49]	insol.	
	C#CCN1CCC23C=CC(O)CC2Oc2c(OC)cc(Br)c(c23)C1 (racemic) [Substance 50]	insol.	
	COc1cc(Br)c2c3c1OC1CC(O)C=CC31CCN(CC#N)C2 (racemic) [Substance 52]	insol.	
	COC(=O)CCC(=O)N1CCC23C=CC(O)CC2Oc2c(OC)cc(Br)c(c23)C1 (racemic) [Substance 61]	insol.	
	COC(=O)N1CCC23C=CC(O)CC2Oc2c(OC)cc(Br)c(c23)C1 (racemic) [Substance 62]	insol.	
	COc1ccc2c3c1OC1CC(=NN(C)C)C=CC31CCN(C)C2 (racemic) [Substance 82]	insol.	
	COc1ccc2c3c1OC1CC(=NNC(N)=O)C=CC31CCN(C)C2 (racemic) [Substance 87]	insol.	
	COc1ccc2c3c1OC1CC(=NO)C=CC31CCN(C)C2 (single isomer, unassigned) [Substance 77, narwedine Oxime]	insol.	
	CCCCNC(=S)OC1C=CC23CCN(C)Cc4ccc(OC)c(c42)OC3C1 (single isomer, unassigned; (+)) [Substance 24, (+)-Galanthamin-n-butylthiocarbamate]		IC50 ([1]; human serum from a pool of 10 test subjects, 37° C., pH 7.8, compounds of general formula (I), read-out: IC50 in μMol): 85 µM
	COc1ccc2c3c1OC1CC(O)C=CC31CC[N+](C)([O-])C2 (single isomer, unassigned; (-)) [Substance 98, (−)-Galanthamine-N-oxide]	insol.	
	COc1ccc2c3c1O[C@H]1CC(=NO)C=C[C@@]31CCN(C)C2 [Substance 76, narwedine Oxime]	insol.	
	COc1ccc2c(c1O)C13C=C[C@@H](O)CC1N(CC3)C2 (stereo partly shown) [Substance 115, 35-4,4a-dihydro-9-methoxy-10-hydroxy (3H,6H) (5,10b) ethanophenanthridine-3-ol]		IC50 ([1]; human serum pool, compounds of formula (II), read-out: IC50): > 150 µM
